Data from patent US12090146B2, “Substituted-pyridinyl compounds and uses thereof” (Bionomics Limited, priority 2018, dated 2024).

Key:
hKv3.2 = target: T1, hKv3.2 (Homo sapiens, UniProt Q96PR1); experiment: Automated patch clamp (Patchliner) whole-cell electrophysiology, Kv3.2; format: cell-based; settings: 10 μM compound, CHO-K1 cells stably expressing hKv3.2; for activation at 10 µM: % potentiation of peak current at −10 mV voltage step vs vehicle; for Kv3.2 Activity at 10 μM Voltage Shift (mV): voltage shift of the IV curve at V1/2
T1 construct: expressed in transfected cells
T1 sequence (Q96PR1 1-638): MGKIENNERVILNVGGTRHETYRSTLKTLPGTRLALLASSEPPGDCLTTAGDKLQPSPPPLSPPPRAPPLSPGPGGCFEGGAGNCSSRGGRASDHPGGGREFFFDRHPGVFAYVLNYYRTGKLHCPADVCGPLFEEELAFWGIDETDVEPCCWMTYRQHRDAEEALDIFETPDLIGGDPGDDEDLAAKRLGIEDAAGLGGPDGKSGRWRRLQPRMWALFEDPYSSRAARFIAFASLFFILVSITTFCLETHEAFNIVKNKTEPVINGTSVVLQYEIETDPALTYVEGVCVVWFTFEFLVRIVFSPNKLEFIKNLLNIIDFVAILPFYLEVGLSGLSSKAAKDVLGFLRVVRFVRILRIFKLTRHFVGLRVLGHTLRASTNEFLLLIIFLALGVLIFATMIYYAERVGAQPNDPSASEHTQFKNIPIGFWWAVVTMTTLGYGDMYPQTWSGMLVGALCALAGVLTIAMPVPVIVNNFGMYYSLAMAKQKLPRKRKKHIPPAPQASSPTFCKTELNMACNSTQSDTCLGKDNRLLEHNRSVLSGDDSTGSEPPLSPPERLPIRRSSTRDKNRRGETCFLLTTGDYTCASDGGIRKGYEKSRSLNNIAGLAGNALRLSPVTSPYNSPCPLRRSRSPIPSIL
Procedure: (§1) hKv3.1, hKv3.2, hKv3.3, and hKv3.4 were stably expressed in CHO-K1 (Chinese hamster ovary) cells and kept under constant antibiotic selection. For in vitro assays, cells were maintained in appropriate growth medium at 37° C. and 5% CO2 in a humidified incubator.
(§2) hKv3.X expressing cells were plated in T-25 flasks for 3-4 days at 37° C. (no selection antibiotic) prior to use and grown to 80% confluence. Cells were washed twice with PBS (calcium and magnesium free) and detached with a 5-minute treatment at 37° C. with 2-3 mls of Accutase®. Cells were collected, and flask was washed in CHO-SFM II media (Life Technologies Gibco), centrifuged for 2 minutes at ˜110×g and resuspended to obtain a single cell suspension of ˜2-3×10^6 cells/ml.
(§3) The intracellular solution contained the following (in mM): KCl 50, NaCl 10, KF 60, EGTA 20, HEPES 10, adjusted to pH 7.2 with KOH and an osmolarity of 285 mOsmol. Seal enhancer was purchased from Nanion (80 mM NaCl, 3 mM KCl, 10 mM MgCl2, 35 mM CaCl2), 10 mM HEPES, pH7.4, 298 mOsmol. The external solution contained (in mM): NaCl 140, KCl 4, CaCl2) 2, MgCl2 1, HEPES 10, Glucose 5, adjusted to pH7.4 and an osmolarity of 298 mOsmol.
(§4) All compounds were initially tested at 10 uM at a final DMSO concentration of 0.33%. Compounds were dissolved in dimethylsulfoxide (DMSO) at a stock concentration of 30 mM. The compound was further diluted 1:10 to give a stock concentration of 3 mM in DMSO. The final assay solution was diluted 1:300 in External solution to give a final concentration of 10 uM. For the DMSO Control Buffer 30 uL of DMSO was added to 10 mL buffer.
(§5) All electrophysiological recordings were performed at ambient temperature (21-23° C.) using automated patch clamp (Patchliner, Nanion Technologies GmbH) in the whole-cell configuration.
(§6) Cell membrane potentials were held at −80 mV, and currents were evoked by voltage steps (1000 ms duration) from −60 to +60 mV in 10 mV increments. This was performed first with vehicle (0.33% DMSO) and then with 10 uM compound, after a 3-minute incubation period. Data was taken from 4 cells per assay.
(§7) The recordings were analysed and selected using peak current amplitude (>100 pA at the −10 mV voltage step) in the absence of compound to eliminate unsuitable cells from analysis. Peak current amplitude was measured and recorded for each voltage step and data was normalised to the maximum current at +60 mV. The normalised Kv3.x currents following addition of the compound were then compared with the currents recorded prior to compound addition (vehicle control). Positive modulation was determined as % potentiation at the voltage step of −10 mV=[current (cmpd)/current (veh)]*100−100. % potentiation ≥50% was considered acceptable. In addition, voltage shift of the IV curve at V1/2 was measured. V1/2 of ≥−5 mV was also considered acceptable. IV curves were plotted in GraphPad Prism (software version 6.0) and fitted with a Boltzmann equation, where V1/2 is the voltage at half-maximal activation.

hKv3.1 = target: T2, hKv3.1 (Homo sapiens, UniProt P48547); experiment: Automated patch clamp (Patchliner) whole-cell electrophysiology, Kv3.1; format: cell-based; settings: 10 μM compound, CHO-K1 cells stably expressing hKv3.1; for Kv3.1 Activity at 10 μM Potentiation (%): % potentiation of peak current at −10 mV voltage step vs vehicle; for Kv3.1 Activity at 10 μM Voltage Shift (mV): voltage shift of the IV curve at V1/2
T2 construct: expressed in transfected cells
T2 sequence (P48547 1-511): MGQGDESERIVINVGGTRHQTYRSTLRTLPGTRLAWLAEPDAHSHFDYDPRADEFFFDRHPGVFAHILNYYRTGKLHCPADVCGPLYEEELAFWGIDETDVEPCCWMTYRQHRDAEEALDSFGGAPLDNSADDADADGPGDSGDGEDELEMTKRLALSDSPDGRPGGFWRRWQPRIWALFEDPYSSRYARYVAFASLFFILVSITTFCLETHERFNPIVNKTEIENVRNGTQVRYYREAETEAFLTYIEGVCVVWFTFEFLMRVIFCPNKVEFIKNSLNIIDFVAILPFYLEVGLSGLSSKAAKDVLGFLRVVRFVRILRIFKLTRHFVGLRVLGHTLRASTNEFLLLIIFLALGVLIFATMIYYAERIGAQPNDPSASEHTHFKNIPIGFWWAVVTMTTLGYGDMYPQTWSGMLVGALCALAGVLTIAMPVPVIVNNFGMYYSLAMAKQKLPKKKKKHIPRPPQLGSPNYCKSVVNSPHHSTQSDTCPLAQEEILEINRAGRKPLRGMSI
Procedure: as §1, §2, §3, §4, §5, §6, §7

SMILES	activation at 10 µM (hKv3.2)	Kv3.2 Activity at 10 μM Voltage Shift (mV) (hKv3.2)	Kv3.1 Activity at 10 μM Potentiation (%) (hKv3.1)	Kv3.1 Activity at 10 μM Voltage Shift (mV) (hKv3.1)
COc1cc(Oc2cc(N3C(=O)NC4(CCCCC4)C3=O)ccn2)ccc1C [Example 24, 3-[2-(3-methoxy-4-methyl-phenoxy)-4-pyridyl]-1,3-diazaspiro[4.5]decane-2,4-dione]	42%	−5.52 mV	–	–
CC[C@@]1(C)NC(=O)N(c2cccc(Oc3cc(OC)cc(OC)c3)n2)C1=O [Example 70, (5R)-3-[6-(3,5-dimethoxyphenoxy)-2-pyridyl]-5-ethyl-5-methyl-imidazolidine-2,4-dione]	34%	−2.42 mV	44%	−2.08 mV
CC[C@H]1NC(=O)N(c2cc(Oc3ccc(C)c(OC)c3)ccn2)C1=O [Example 41, (5R)-5-ethyl-3-[4-(3-methoxy-4-methyl-phenoxy)-2-pyridyl]imidazolidine-2,4-dione]	53%	−3.77 mV	67%	−4.46 mV
COc1cc(Oc2cc(N3C(=O)NC4(CCCC4)C3=O)ccn2)ccc1C [Example 33, 3-[2-(3-methoxy-4-methyl-phenoxy)-4-pyridyl]-1,3-diazaspiro[4.4]nonane-2,4-dione]	22%	−2.72 mV	64%	−5.74 mV
COc1cc(Oc2cc(N3C(=O)NC(C)(C)C3=O)ccn2)ccc1F [Example 6, 3-[2-[3-methoxy-4-fluorophenoxy]-4-pyridyl]-5,5-dimethyl-imidazolidine-2,4-dione]	25%	−3.18 mV	–	–
COc1cc(Oc2cc(N3C(=O)NC(C)(C)C3=O)ccn2)ccc1C [Example 1, 3-[2-(3-methoxy-4-methyl-phenoxy)-4-pyridyl]-5,5-dimethyl-imidazolidine-2,4-dione]	21%	−1.23 mV	53%	−2.9 mV
CC[C@@]1(C)NC(=O)N(c2ccnc(Oc3ccc4c(c3)OC(F)(F)O4)c2)C1=O [Example 16, (5R)-3-[2-[(2,2-difluoro-1,3-benzodioxol-5-yl)oxy]-4-pyridyl]-5-ethyl-5-methyl-imidazolidine-2,4-dione]	47%	−3.63 mV	–	–
CC1(C)NC(=O)N(c2ccnc(Oc3ccc4c(c3)CCC4)c2)C1=O [Example 3, 3-(2-indan-5-yloxy-4-pyridyl)-5,5-dimethyl-imidazolidine-2,4-dione]	66%	−6.71 mV	58%	−4.65 mV
COc1cc(Oc2cncc(N3C(=O)NC(C)(C)C3=O)c2)ccc1C [Example 39, 3-[5-(3-methoxy-4-methyl-phenoxy)-3-pyridyl]-5,5-dimethyl-imidazolidine-2,4-dione]	31%	−3.78 mV	25%	−2.77 mV
CC(C)c1cc(Oc2ccnc(N3C(=O)NC(C)(C)C3=O)c2)ccc1C#N [Example 47, 4-[[2-(4,4-dimethyl-2,5-dioxo-imidazolidin-1-yl)-4-pyridyl]oxy]-2-isopropyl-benzonitrile]	–	–	29%	−1.49 mV
CC[C@@]1(C)NC(=O)N(c2cccc(Oc3ccc(F)c(OC)c3)n2)C1=O [Example 59, (5R)-5-ethyl-3-[6-(4-fluoro-3-methoxy-phenoxy)-2-pyridyl]-5-methyl-imidazolidine-2,4-dione]	–	–	10%	−1.95 mV

Second part, the compound after the results:

activation at 10 µM (hKv3.2)	Kv3.2 Activity at 10 μM Voltage Shift (mV) (hKv3.2)	Kv3.1 Activity at 10 μM Potentiation (%) (hKv3.1)	Kv3.1 Activity at 10 μM Voltage Shift (mV) (hKv3.1)	SMILES
93%	−5.37 mV	227%	−7.49 mV	O=C1NC2(CCCC2)C(=O)N1c1ccnc(Oc2ccc3c(c2)OC(F)(F)O3)c1F [Example 92, 3-[2-[(2,2-difluoro-1,3-benzodioxol-5-yl)oxy]-3-fluoro-4-pyridyl]-1,3-diazaspiro[4.4]nonane-2,4-dione]
121%	−7.43 mV	217%	−10.39 mV	COc1cc(Oc2nccc(N3C(=O)NC4(CCCC4)C3=O)c2F)ccc1C [Example 90, 3-[3-fluoro-2-(3-methoxy-4-methyl-phenoxy)-4-pyridyl]-1,3-diazaspiro[4.4]nonane-2,4-dione]
5%	0 mV	15%	−4.01 mV	COc1cc(Oc2cccc(N3C(=O)NC4(CCCCC4)C3=O)n2)ccc1C [Example 75, 3-[6-(3-methoxy-4-methyl-phenoxy)-2-pyridyl]-1,3-diazaspiro[4.5]decane-2,4-dione]
28%	−2.58 mV	–	–	CC[C@@]1(C)NC(=O)N(c2ccc(F)c(Oc3ccc(C)c(OC)c3)n2)C1=O [Example 89, (5R)-5-ethyl-3-[5-fluoro-6-(3-methoxy-4-methyl-phenoxy)-2-pyridyl]-5-methyl-imidazolidine-2,4-dione]
–	–	12%	−0.95 mV	CC(C)c1cc(Oc2cccc(N3C(=O)NC(C)(C)C3=O)n2)ccc1C#N [Example 77, 4-[[6-(4,4-dimethyl-2,5-dioxo-imidazolidin-1-yl)-2-pyridyl]oxy]-2-isopropyl-benzonitrile]
–	–	26%	−1.61 mV	COc1cc(Oc2cccc(N3C(=O)NC(C)(C)C3=O)n2)ccc1C [Example 73, 3-[6-(3-methoxy-4-methyl-phenoxy)-2-pyridyl]-5,5-dimethyl-imidazolidine-2,4-dione]
